# pEC50: −log10 of the molar value. Square brackets hold non-standard residues; d marks the D form. Peptide text beside a SMILES is read from it.
# Key:
# [1] = system: pituitary cell monolayers; test: GH secretion of pituitary cell monolayers incubated with peptides; format: cell-based, rats; conditions: 2 hours incubation
# Experimental: (§1) Male Sprague Dawley rats (Charles River, Calco, Italy) of 2-3 months of age were used. Rats were housed at 22 +2° C., with lighting cycle of 14 h light: 10 h dark (lights on from 06.00 to 20.00 h), at least 10 days before starting the experiments. A standard dry diet and water were available ad libitum.
# Pituitary tissue used for cell dissociation included only the anterior lobe. Briefly, pituitary glands were collected in sterile F-10 medium and after cutting into small fragments incubated twice (30 minutes each) at 37° C. in F-10 medium containing 6% fetal calf serum and collagenase (2.5 mg/ml) (Boehringer, Mannheim GmbH, Germany). Fragments were then washed in Dulbecco's PBS, Ca^2 + and Mg^2 + free medium and mechanically dissociated. Single cell suspension was planted onto 24-well (2×10^5 cells/well) culture plates. The cells were incubated in F-10 medium supplemented with 10% horse serum, 4% fetal calf serum and gentamycin (25 μg/ml), in a humidified atmosphere of 5% CO2 and 95% air at 37° C.
# After 3 days, the medium was removed and the cells washed twice with serum free F-10, then incubated with 1 ml of F-10 containing 0.1% BSA only, or with added various concentrations of synthetic peptides.
# After incubation for 2 h at 37° C., media were collected and stored frozen at -20° C. until assayed for measurement of GH content.
# (§2) Medium and plasma GH was measured by radioimmunoassay using materials supplied by the NIADDK Bethesda, Md. Values were expressed in term of NIASSK-rat-GH-RP-2 standard (potency 2 IU/ml), as ng/ml of medium or plasma.
# (§3) The minimum detectable value of rat was 1.0 ng/ml; intra-assay variability was 6%. To avoid inter-assay variation, samples from each experiment were assayed simultaneously.
# [2] = system: GH release; test: Plasma GH after i.v. administration in male rats anesthetized with ketamine and xilazine; format: in vivo; conditions: 0 min (before injection)
# Experimental: as §1
# (§4) Between 09.00-10.00 h rats were anesthetized with ketamine (58 mg/kg, Inoketam, VIRBAC, Milano) and xilazine (12 mg/kg, Rompun, Bayer, Milano). Thirty minutes later, a blood sample ([…]) was withdrawn from the exposed jugular vein, peptides were injected intravenously or subcutaneously, and further blood samples were collected 10, 20 and 30 minutes later.
# as §2, §3
# [3] = system: GH release; test: Plasma GH after s.c. administration in male rats anesthetized with ketamine and xilazine; format: in vivo; conditions: 0 min (before injection)
# Experimental: as §1, §4, §2, §3
# [4] = system: rat; test: Acute cardiovascular toxicity in the rat, single i.v. dose, mortality; format: in vivo; conditions: observed up to 4 hours
# Experimental: These two peptides were also tested for acute cardiovascular toxicity in the rat.
# Dosages were calculated on the basis of the declared peptide content in each product, as specified below:
# A single dose of HEXARELIN or GHRP-6 was administered to rats in different calendar dates in such a way that each group/dose should be treated in two subsequent days.
# For each compound, appropriate amounts of solutions in 0.9% NaCl for injection were prepared just before treatment at the suitable concentrations. The solutions were sterilized by filtration (Millipore filter, pore size 0.22 μm). Owing to the type of the study (acute study) in which formulates were administered just after preparation, stability checks were not performed. Concentration checks were also not performed. The volume of solution injected was maintained constant at 1 ml/Kg.
# The intravenous injections were done as a single dose in one vein of the tail with an appropriately gauged sterile, disposable, plastic syringe. The injection rate was about 0.1 ml/sec.
# Periodical observations were made up to 4 hours after treatment. Abnormality and mortality were recorded. Body weight was recorded once during pre-trial and on the administration day to calculate the volumes to be injected.
# [5] = system: GH release; test: GH response in conscious, freely-moving rats after antiserum pretreatment, i.v. 25 μg/kg; format: in vivo; conditions: 25 μg/kg i.v.
# Experimental: Sixty male rats were prepared with indwelling venous catheters under ether anesthesia three days before experimentation. On the day of experimentation, all animals were given an iv heparin injection (100 IU; 0630 h). At 0700 h, animals were treated with 0.5 ml of either normal serum (control-as), somatostatin antiserum (somatostatin-as; 0.25 ml+0.25 ml saline), growth hormone-releasing hormone antiserum (GHRH-as; 0.25 ml+0.25 ml saline), or both somatostatin antiserum and growth hormone-releasing hormone antiserum (0.25 ml somatostatin-as+0.25 ml GHRH-as). Blood sampling began 60 minutes after antiserum pretreatment, with blood samples collected every 20 minutes for three hours. After the 180 minute sample (1100 h), animals were treated iv with 25 μg/kg of either Hexarelin or GHRP-6. Blood samples were then collected at 5, 10, 15, 20, 30, 40, and 60 minutes after peptide treatment. All samples were centrifuged immediately and the plasma frozen until assayed. The peak GH response to Hexarelin and GHRP-6 as well as the area under the response curves (AUCs) for the thirty minutes following peptide injection were calculated. Data were subjected to repeated measures analysis of variance and are expressed as mean±SEM.
# [6] = system: adenylcyclase; test: Adenylcyclase activity in anterior pituitary gland cells; format: cell-based; conditions: anterior pituitary gland cells from rats weighing 150 g
# [7] = Stability of D-Trp and D-2-methyl-Trp in 1% solutions (HPLC peak area); format: physicochemical; conditions: pH 2.2 citrate buffer, dark, helium (FIG. 1), pH 5.4 acetate buffer, oxygen, constant light (FIG. 2)
# [8] = system: GH release; test: Released GH in ten day-rats, s.c. (Table 9); format: in vivo; conditions: 15 minutes
# Experimental: In vivo activity of these compounds was determined in ten day-rats, which were subcutaneously injected (s.c.) with a dose of 300 μg/kg or with different doses in dose-response studies, according to the procedure as described in Deghenghi et. al, Life Sciences 54, 1321 (1994). The released GH was measured 15 minutes following compound administration.
# [9] = 300 μg/kg s.c., GH control 10 to 31 ng/ml depending on experiment
molecule,measurement,setting,value
"C[C@H](NC(=O)[C@@H](Cc1c[nH]c2ccccc12)NC(=O)[C@@H](N)Cc1c[nH]cn1)C(=O)N[C@@H](Cc1c[nH]c2ccccc12)C(=O)N[C@H](Cc1ccccc1)C(=O)N[C@@H](CCCCN)C(N)=O [GHRP-6, His-D-Trp-Ala-Trp-D-Phe-Lys-NH2] (H-H[dW]AW[dF]K-NH2)",GH-releasing activity,[1]; 10^-6 M,510.0 ± 12.0 ng/well
same,GH-releasing activity,[1]; 10^-7 M,526.5 ± 19.0 ng/well
same,GH-releasing activity,[1]; 10^-8 M,544.2 ± 23.9 ng/well
same,plasma GH,[2]; i.v. 150 μg/kg,30.2 ± 7.8 ng/mL
same,plasma GH,[2]; i.v. 300 μg/kg,21.9 ± 4.4 ng/mL
same,plasma GH,[2]; i.v. 600 μg/kg,21.2 ± 6.1 ng/mL
same,plasma GH,[3]; s.c. 150 μg/kg,20.0 ± 5.0 ng/mL
same,plasma GH,[3]; s.c. 300 μg/kg,20.0 ± 6.0 ng/mL
same,plasma GH,[3]; s.c. 600 μg/kg,18.0 ± 4.0 ng/mL
same,Dead rats/Total No of rats per group,[4]; 2.5 mg/kg i.v. single dose,0/6
same,Dead rats/Total No of rats per group,[4]; 5.0 mg/kg i.v. single dose,1/6
same,Dead rats/Total No of rats per group,[4]; 7.5 mg/kg i.v. single dose,2/6
same,Mean GH,[5]; main peptide effect pooled over antiserum pretreatments,131 ± 13 ng/mL
same,Peak GH,[5]; pooled over antiserum pretreatments,293 ± 41 ng/mL
same,GH AUC,"[5]; thirty minutes following injection, pooled over antiserum pretreatments",4220 ± 665 ng/ml/30 min
same,"adenylcyclase activity, increase compared with the baseline",[6],inactive
"Cc1[nH]c2ccccc2c1C[C@@H](N)C(=O)O [substituted Trp, D-2-Methyl-Tryptophan]",time stable in solution (HPLC peak area),[7],≥ 60 days
imidazolylacetyl-D-Mrp-Ala-Trp-D-Phe-Lys-NH2,GH released,[8]; [9],159 ± 27 ng/mL
"N[C@H](Cc1c[nH]c2ccccc12)C(=O)O [unsubstituted Trp, D-Tryptophan, reference compound]",time stable in solution (HPLC peak area),[7],about 20 days
4-(aminomethyl)cyclohexanecarbonyl-D-Mrp-D-Trp-Phe-Lys-NH^2,GH released,[8]; [9],111.8 ± 24.6 ng/mL
D-Ala-D-Mrp-Ala-Trp-D-Phe-Lys-NH2 [D-Ala-D-Mrp--Ala--Trp-D-Phe--Lys--NH2],GH released,"[8]; 40 μg/kg s.c., GH control 34 ± 1",200 ± 20 ng/mL
same,GH released,"[8]; 320 μg/kg s.c., GH control 34 ± 1",251 ± 32 ng/mL
same,pEC50,[6],9.64
same,"adenylcyclase activity, increase compared with the baseline",[6],30%
